The values that follow come from PMC6847237 (2019).

The subject of assay [1] is (GCAGCAGC)2 (RNA, mismatch bulge abasic) GCAGCAGC
The assay can be described thus: X-ray crystallography. The settings on record: RNA 0.75 mM, RNA:ligand 1:2 mixed.

Assay [2] relates to (UCAACAGUUGA)2 (RNA, mismatch bulge abasic) UCAACAGUUGA
Description: UV melting at 260 nm, median method. To be noted: 100 mM NaCl; 10 mM sodium cacodylate pH 7.0, 2% DMSO; RNA 5 μM, CMBL3a 20 μM.

Assay [3] concerns (CGG)9 (5'-biotinylated, immobilized) (RNA, repeat) CGGCGGCGGCGGCGGCGGCGGCGGCGG
Description: SPR single cycle kinetics. The settings on record: 150 mM NaCl; 10 mM HEPES pH 7.4, 3 mM EDTA, 0.005% P20, 5% DMSO; highest tested 0.5 μM.

Assay [4] has as its system (CCG)9 (5'-biotinylated, immobilized) (RNA, repeat) CCGCCGCCGCCGCCGCCGCCGCCGCCG
Description: SPR single cycle kinetics. The settings on record: 150 mM NaCl; 10 mM HEPES pH 7.4, 3 mM EDTA, 0.005% P20, 5% DMSO; highest tested 0.5 μM.

Assay [5] deals with GCAG(2′-SeCH3-C)AGC (RNA, mismatch bulge abasic, 2'-methylseleno cytidine at 5) GCAGCAGC
The assay can be described thus: X-ray crystallography (SAD). The settings on record: 5 mM MgCl2; TRIS pH 7.5, 30% PEG 400; RNA 0.75 mM, RNA:ligand 1:2 mixed.

Assay [6] relates to (CAG)9 (5'-biotinylated, immobilized) (RNA, repeat) CAGCAGCAGCAGCAGCAGCAGCAGCAG
The assay can be described thus: SPR single cycle kinetics. To be noted: 150 mM NaCl; 10 mM HEPES pH 7.4, 3 mM EDTA, 0.005% P20, 5% DMSO; 0.1-0.5 μM ligand.

Assay [7] deals with (CAG)9 (RNA, repeat) CAGCAGCAGCAGCAGCAGCAGCAGCAG
The assay can be described thus: CD titration at 347.5 nm. The settings on record: 100 mM NaCl, 10 mM sodium cacodylate pH 7.0, ambient temperature, RNA 2.5 μM, 1:2 binding isotherm.

SMILES strings stand for the structures.

Regarding `O=C1Nc2ccc3ccc(nc3n2)CNCc2ccc3ccc(nc3n2)NC(=O)OCC/C=C\CCO1`, in assay [1] (20 mM magnesium acetate, 1.7 M ammonium sulfate, cacodylate pH 6.0), the binding result is given as “yes”.
For the compound `O=C1Nc2ccc3ccc(nc3n2)CNCc2ccc3ccc(nc3n2)NC(=O)OCCCNCCCO1`, the binding entry in assay [1] (2 mM MgCl2, 5 mM hexamine cobalt chloride, MOPS pH 7.0, Tacsimate) was “yes”.
A word on the apparent Kd: it is the concentration giving half-maximal binding under the conditions of the assay. Take `O=C1Nc2ccc3ccc(nc3n2)CNCc2ccc3ccc(nc3n2)NC(=O)OCC/C=C/CCO1`: the binding entry is on record as “yes” in assay [2]; “no” in assay [3]; “no” in assay [4]; “yes” in assay [5]; “yes” in assay [6]; “yes” in assay [1] (10 mM MgCl2, 1 M Li2SO4, cacodylate pH 6.0). For the same compound, the “apparent Kd” value in assay [7] is 70.5 µM.
